The text below walks through data of patent publication US11986530B2, “Drug composition for parenteral administration” (THERABIOPHARMA INC., priority 2016, dated 2024).

For one series, the system named is β-glucuronidase. To be noted: 10 μL of 2.45 μg/mL substrate, pH 5.0, 37° C., 1 hour, n=3.
Another series has as its system KBM-5. The note with it: KBM-5, in vitro; cited from earlier work.
The next series concerns Jurkat cells. The note with it: in vitro; cited from earlier work.
The subject of a further series is U266. To be noted: U266, in vitro; cited from earlier work.
A further series relates to A549. The note with it: A549, in vitro; cited from earlier work.
Series [1] in a line: Intravenous administration test: concentration of curcumin conjugates and free curcumin in plasma. Format: in vivo, SD rats. The note with it: rat. The method, then:
As the test animals, 9-week old SD rats (male, with a body weight of 330 to 360 g, CHARLES RIVER LABORATORIES JAPAN, INC.) were used.
The intravenous administration was performed as follows: a predetermined amount of the curcumin monoglucuronide prepared in Production Example 1 was dissolved into water for injection so as to be 30 mg/kg; and the obtained preparation was administered intravenously to each of the test animals (n=5) fasted for 12 hours or more before the administration via an indwelling catheter in the femoral artery of each of the test animals. In this regard, the catheter was indwelled in the femoral artery under isoflurane anesthesia on the day of administration and blood collection.
Blood was collected via a catheter from the femoral artery of each of test animals by using a heparin-treated syringe under the restraint condition in a Ballman cage without anesthesia. In this regard, around 0.6 mL of blood was collected after each lapse of 1, 3, 5, 10, 15, 30, 60, 120, 240 and 480 minutes from the start of intravenous administration, and the collected blood was centrifuged (at 3,000 rpm, for 10 minutes, at 4° C.) to obtain the plasma.
The concentration of each of the curcumin conjugate and free curcumin in plasma was determined by the following methods.
Further, this fractionation process was repeated twice.
In this regard, in the following test, a supernatant liquid prepared by using a β-glucuronidase solution was used as an enzyme-treated sample, and a supernatant liquid prepared by using distilled water in place of the β-glucuronidase solution was used as a non-enzyme-treated sample.
By analyzing 2 μL of the enzyme-treated or non-enzyme-treated sample prepared in the above-described “a. Pretreatment” using LC-MS/MS (manufactured by Shimadzu Corporation), the concentration of each of the curcumin conjugate and free curcumin in plasma was determined.
That is, by measuring the concentration of the curcumin contained in the enzyme-treated sample that had been obtained by the treatment with β-glucuronidase, the total concentration of curcumin in plasma was measured.
On the other hand, by measuring the concentration of the curcumin in the non-enzyme-treated sample that had not been treated with β-glucuronidase, the concentration of free curcumin in plasma was measured.
Further, by subtracting the concentration of free curcumin from the total concentration of curcumin, the concentration of the curcumin conjugates contained in plasma was calculated.
In this regard, the LC-MS/MS analysis conditions were set to be a LC column of Atlantis T3 (2.1×150 mm, 3 μm, manufactured by Waters), a column temperature of 40° C., a flow rate of 0.2 mL/min, and a mobile phase of A of a 0.1% formic acid aqueous solution and B of 0.1% formic acid/acetonitrile, and the gradient elution was performed under the following conditions (Table 1). In addition, the MS analysis conditions were set to be an ionization mode of […] (ESI), Positive, a measurement mode of Multiple Reaction Monitoring (MRM), curcumin of 369.1→177.2 (m/z), and mepronil of 270→119 (m/z), and the evaluation was performed.

Series [2] has as its system colorectal cancer cells derived from adult human colon HCT116. Kind of series: Anti-tumor effect by intravenous administration of curcumin conjugates (tumor size, HCT116 transplanted mice). The series is classed as in vivo, BALB/cAnNcr j-nu/nu (homo) mice. The note with it: parenteral (i.v.) administration, 30 or 90 mg/kg, versus control group. The text has this: 1×10^7 or 4×10^6 colorectal cancer cells derived from adult human […] colon HCT116 (ATCC No. CCL-247) were transplanted subcutaneously into the flank of each of the test animals by using a 27 G injection needle.
In this regard, in the control group, mice to which water for injection excluding curcumin monoglucuronide had been administered intravenously were used.
For the tumor size, after each lapse of 0, 4, 7, 11 and 14 days from the start of administration or after each lapse of 0, 4, 7, 11, 14, 18 and 21 days from the start of administration, the length, width and height of the tumor were measured by using a vernier caliper, and the tumor size was calculated by the following equation. Tumor size (mm^3)=length×width×height×0.5 (5) Concentration of Curcumin Conjugates and Free Curcumin in Tumor Tissue

The nature of series [3]: Concentration of curcumin conjugates and free curcumin in tumor tissue. The series is classed as in vivo, BALB/cAnNcr j-nu/nu (homo) mice. To be noted: mouse, day 21. The method, then: For the mice (n=8) inoculated with the 4×10^6 cancer cells (HCT116), the tumor after the lapse of 2 hours from the intravenous administration of curcumin monoglucuronide (90 mg/kg) after the lapse of 21 days from the start of inoculation was removed from each of the mice, the removed tumor was rinsed with a saline solution, and then immediately frozen in liquid nitrogen, and the frozen tumor was stored in an ultra-low temperature tank at −80° C.
The frozen and stored tumor was thawed while cooling in ice, an adequate amount of a saline solution was added to the thawed tumor, and the thus obtained tumor was homogenized with a glass homogenizer, the concentration of each of the curcumin conjugates and free curcumin in the pulverized tumor obtained as described above were measured to examine the concentration of each of the curcumin conjugates and free curcumin contained in the tumor tissue.

Series [4] relates to human hepatocellular carcinoma cell lines (HepG2 cells). The note with it: cited from earlier work.
For series [5] the following is noted: cited from earlier work.

Experimental for β-glucuronidase: In this regard, as a control, curcumin monoglucuronide was used for the examination.
In addition, as the curcumin diglucuronide, commercially available curcumin diglucuronide (manufactured by SynInnova Laboratories Inc.) was used.
Next, into the resultant mixture, 0.5 mL of chloroform was added, and the mixture was stirred for 1 minute with a vortex mixer, and then the stirred mixture was treated for 15 minutes by using an ultrasonic generator, and the treated mixture was fractionated into a chloroform layer and a water layer by centrifugation (10,000×g, for 5 minutes, at room temperature). Further, this fractionation process was repeated twice. After that, the chloroform layer was collected, and dried and solidified by distilling off the solvent with a vacuum centrifugal concentrator, and to the dried and solidified matter, 100 μL of 50% (v/v) methanol was added, and then the resultant mixture was centrifuged (10,000×g, for 5 minutes, at room temperature) to collect a supernatant liquid, and the collected supernatant liquid was taken as an enzyme-treated sample.
In 2 μL of the enzyme-treated sample prepared in the above (2), free curcumin was measured by the method described in “b.

For `COc1cc(/C=C/C(=O)CC(=O)/C=C/c2ccc(O[C@@H]3O[C@H](C(=O)O)[C@@H](O)[C@H](O)[C@H]3O)c(OC)c2)ccc1O[C@@H]1O[C@H](C(=O)O)[C@@H](O)[C@H](O)[C@H]1O` [curcumin diglucuronide], the “concentration of the curcumin contained in the enzyme-treated sample” value in the series with β-glucuronidase was found to be 82.4 ± 0.8 ng/mL. Also, the “cell growth inhibitory effect” value in the series on KBM-5, in the series with Jurkat cells, with U266 and in the series on A549 was “there is no such an effect” each time.

As to `COc1cc(/C=C/C(=O)CC(=O)/C=C/c2ccc(O[C@@H]3O[C@H](C(=O)O)[C@@H](O)[C@H](O)[C@H]3O)c(OC)c2)ccc1O` [curcumin monoglucuronide], in [1] (30 mg/kg i.v.), the “Cmax (ng/mL) of curcumin conjugates in plasma” value came out at 160492 ± 19156 ng/mL. The AUC 0.02-8 h (ng·h/mL) of free curcumin in plasma in series [1] (30 mg/kg i.v. of conjugate) was 2780 ± 962 ng·h/mL. For the same compound, the “Cmax (ng/mL) of free curcumin in plasma” value in series [1] (30 mg/kg i.v. of conjugate) turned out to be 10143 ± 3832 ng/mL. Moreover, the “concentration of free curcumin in plasma” value in series [1] (30 mg/kg i.v. of conjugate, 1 minute after administration) is 10.143 ± 3.832 µg/mL; in [1] (30 mg/kg i.v. of conjugate, 3 minutes) it was 7.562 ± 2.903 µg/mL; in [1] (30 mg/kg i.v. of conjugate, 5 minutes), 5.707 ± 2.539 µg/mL; in [1] (30 mg/kg i.v. of conjugate, 10 minutes), 3.596 ± 1.233 µg/mL; in series [1] (30 mg/kg i.v. of conjugate, 15 minutes), 2.764 ± 0.796 µg/mL; in series [1] (30 mg/kg i.v. of conjugate, 30 minutes), 1.605 ± 0.592 µg/mL. For the same compound, the “concentration of free curcumin in plasma” value in series [1] (30 mg/kg i.v. of conjugate, 1 hour) was determined as 0.568 ± 0.197 µg/mL; in series [1] (30 mg/kg i.v. of conjugate, 2 hours), 0.117 ± 0.039 µg/mL; in [1] (30 mg/kg i.v. of conjugate, 4 hours), 0.016 ± 0.005 µg/mL; in [1] (30 mg/kg i.v. of conjugate, 8 hours), 0.006 ± 0.014 µg/mL. Moreover, the “concentration of curcumin conjugates in plasma” value in series [1] (30 mg/kg i.v., 1 minute after administration) was 160.492 ± 19.156 µg/mL; in [1] (30 mg/kg i.v., 3 minutes), 77.803 ± 6.442 µg/mL; in series [1] (30 mg/kg i.v., 5 minutes), 80.489 ± 7.161 µg/mL; in [1] (30 mg/kg i.v., 10 minutes) it was 46.853 ± 10.7 µg/mL; in series [1] (30 mg/kg i.v., 15 minutes) it was 22.918 ± 5.271 µg/mL; in series [1] (30 mg/kg i.v., 30 minutes) it was 10.191 ± 3.502 µg/mL. Also, the “concentration of curcumin conjugates in plasma” value in series [1] (30 mg/kg i.v., 1 hour) is 4.363 ± 1.354 µg/mL; in [1] (30 mg/kg i.v., 2 hours) it was 1.493 ± 0.371 µg/mL; in series [1] (30 mg/kg i.v., 4 hours), 0.403 ± 0.12 µg/mL; in series [1] (30 mg/kg i.v., 8 hours), 0.078 ± 0.039 µg/mL. Further, the “effect on tumor growth (in words)” value in [2] is listed as “significantly suppressing the tumor growth”. Moreover, the “concentration of the free curcumin in the tumor tissue” value in series [3] (2 hours after 90 mg/kg i.v. of conjugate) was determined as 1464.5 ± 840.9 ng/g. Moreover, the “concentration of the curcumin conjugates in the tumor tissue” value in series [3] (2 hours after 90 mg/kg i.v.) was found to be 605.4 ± 465.5 ng/g.

Regarding `COc1cc(/C=C/C(=O)/C=C(O)/C=C/c2ccc(O)c(OC)c2)ccc1O` [curcumin], the “cell growth inhibitory effect” value is given as “has an effect of suppressing the growth of these cells” with KBM-5; “has an effect of suppressing the growth of these cells” in the series on Jurkat cells; “has an effect of suppressing the growth of these cells” in the series on U266; “has an effect of suppressing the growth of these cells” in the series on A549; “found the cell growth inhibitory effect” in [4]. Also, the solubility in water result in series [5] was “hardly soluble in water”.
